Test results published in paper PMC4779956 (Journal of medicinal chemistry, 2015).
One block for each compound: values may come before it.

Key:
[1] = Uterine weight in xenograft study; format: in vivo, mice; conditions: T47D:A18/PKCα xenograft study, 100 mg/kg oral daily
ERα [2] = target: T1, ERα (Homo sapiens, UniProt P03372); test: ERE-luciferase reporter assay; format: cell-based; conditions: for Efficacy (% E2): MCF-7:ws8 cells, normalized to Ctrl (0%) and E2 1 nM (100%)
T1 sequence (P03372 1-595): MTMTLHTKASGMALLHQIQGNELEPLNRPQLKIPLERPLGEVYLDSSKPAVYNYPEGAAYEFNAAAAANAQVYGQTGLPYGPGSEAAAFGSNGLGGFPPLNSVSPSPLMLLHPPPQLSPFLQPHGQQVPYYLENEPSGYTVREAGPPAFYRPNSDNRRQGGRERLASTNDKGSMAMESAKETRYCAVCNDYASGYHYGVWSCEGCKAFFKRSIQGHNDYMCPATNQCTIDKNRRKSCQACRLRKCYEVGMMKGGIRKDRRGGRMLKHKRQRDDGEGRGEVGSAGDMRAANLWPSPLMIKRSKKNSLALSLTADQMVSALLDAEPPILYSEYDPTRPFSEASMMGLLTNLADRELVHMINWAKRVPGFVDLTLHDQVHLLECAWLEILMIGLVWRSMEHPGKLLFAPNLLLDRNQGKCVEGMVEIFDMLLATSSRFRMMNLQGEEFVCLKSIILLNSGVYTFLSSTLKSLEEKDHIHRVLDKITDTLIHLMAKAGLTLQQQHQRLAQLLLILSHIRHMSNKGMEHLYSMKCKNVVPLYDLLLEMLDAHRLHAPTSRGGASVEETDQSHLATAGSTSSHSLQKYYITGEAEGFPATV

T47D:A18/PKCα tumors [3] = test: T47D:A18/PKCα tamoxifen-resistant xenograft; format: in vivo, mice; conditions: 100 mg/kg oral gavage daily, within two weeks
MCF-7:5C cells = test: MCF-7:5C cell viability assay; format: cell-based, human
ERα [4] = target: T1, ERα; test: Antagonism of E2-induced ERE-luciferase activation; format: cell-based; conditions: MCF-7:ws8, in presence of 0.1 nM E2, ShERPA 100-500 nM, 18 h
T47D:A18/PKCα tumors [5] = conditions: T47D:A18/PKCα model; cited from earlier work
ERα-LBD/SRC3 complex [6] = target: T2, ERα-LBD/SRC3 complex (Homo sapiens, UniProt P03372); test: TR-FRET ligand titration in presence of 10 nM E2; format: biochemical; conditions: in presence of 10 nM E2, 100 nM SRC3
T2 sequence (P03372 311-547 limits assumed): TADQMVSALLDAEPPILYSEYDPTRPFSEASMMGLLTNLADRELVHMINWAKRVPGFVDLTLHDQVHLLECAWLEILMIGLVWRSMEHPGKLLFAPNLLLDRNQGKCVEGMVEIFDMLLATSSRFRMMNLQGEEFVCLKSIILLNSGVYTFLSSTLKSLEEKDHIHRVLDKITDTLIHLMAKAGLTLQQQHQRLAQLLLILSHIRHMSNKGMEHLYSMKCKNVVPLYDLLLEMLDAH
T2 sequence (Q9Y6Q9 627-829 partner limits assumed): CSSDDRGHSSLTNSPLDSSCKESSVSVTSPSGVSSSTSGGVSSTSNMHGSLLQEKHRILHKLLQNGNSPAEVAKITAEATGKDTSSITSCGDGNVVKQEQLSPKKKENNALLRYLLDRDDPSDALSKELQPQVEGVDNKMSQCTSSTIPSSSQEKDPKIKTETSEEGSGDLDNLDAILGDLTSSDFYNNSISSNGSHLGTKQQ

ERα-LBD/SRC3 complex [7] = target: T2, ERα-LBD/SRC3 complex; test: TR-FRET SRC3 titration; format: biochemical; conditions: 20 μM ligand
[8] = T47D:A18/PKCα xenograft study; cited from earlier work
T47D:A18-TAM1 = T47D:A18-TAM1 model; cited from earlier work

Structure (SMILES): O=C(c1ccc(C(F)(F)F)cc1)c1sc2cc(O)ccc2c1-c1ccc(F)cc1 [Compound 26a, (3-(4-fluorophenyl)-6-hydroxybenzo[b]thiophen-2-yl)(4-(trifluoromethyl)phenyl)methanone]
Uterine weight versus vehicle control [1]: no significant increase in uterine weight compared to vehicle control mice | Efficacy (% E2) (ERα [2]): 85 % E2 | Tumor size versus control tumors (T47D:A18/PKCα tumors [3]): half the size of control tumors

Structure (SMILES): N#Cc1ccc(C(=O)c2sc3cc(O)ccc3c2-c2ccc(F)cc2)cc1 [Compound 26b, 4-(3-(4-fluorophenyl)-6-hydroxybenzo[b]thiophene-2-carbonyl)benzonitrile]
Efficacy (% E2) (ERα [2]): 100 % E2

Structure (SMILES): CS(=O)(=O)c1ccc(C(=O)c2sc3cc(O)ccc3c2-c2ccc(F)cc2)cc1 [Compound 21a, (3-(4-fluorophenyl)-6-hydroxybenzo[b]thiophen-2-yl)(4-(methylsulfonyl)phenyl)methanone]
Efficacy (% E2) (ERα [2]): 100 % E2

Structure (SMILES): C[C@]12CC[C@@H]3c4ccc(O)cc4CC[C@H]3[C@@H]1CC[C@@H]2O [Compound E2, estradiol, reference compound]
Reduction of cell viability compared to vehicle control (MCF-7:5C cells; 9 days): approximately 60%

Structure (SMILES): O=C(c1ccc(O)cc1)c1sc2cc(O)ccc2c1-c1ccc(F)cc1 [Compound 21b, (3-(4-fluorophenyl)-6-hydroxybenzo[b]thiophen-2-yl)(4-hydroxyphenyl)methanone]
Efficacy (% E2) (ERα [2]): 100 % E2

Structure (SMILES): O=C(c1sc2cc(O)ccc2c1-c1ccc(F)cc1)C1CCCCC1 [Compound 21g, Cyclohexyl(3-(4-fluorophenyl)-6-hydroxybenzo[b]thiophen-2-yl)methanone]
Inhibition of cell growth relative to E2 % (MCF-7:5C cells; 10 nM, 9 day, control 0 %, E2 100 %, 0.01 µM): 100% | Efficacy (% E2) (ERα [2]): 100 % E2

Structure (SMILES): Oc1ccc(Oc2sc3cc(O)ccc3c2-c2ccc(F)cc2)cc1 [Compound 30a, 3-(4-fluorophenyl)-2-(4-hydroxyphenoxy)benzo[b]thiophen-6-ol]
Antagonism of E2 induced ERE activation (ERα [4]): dose dependent reduction in E2 luciferase activity | Xenograft tumor regression (T47D:A18/PKCα tumors [5]): dramatic regression | Effect on FRET signal on ligand titration (ERα-LBD/SRC3 complex [6]): reduced FRET signal | Maximal FRET signal relative to E2-liganded ERα-LBD/SRC3 complex (ERα-LBD/SRC3 complex [7]): less than 50% | Uterine weight [8]: not accompanied by a significant increase in uterine weight | Xenograft tumor regression (T47D:A18-TAM1): dramatic regression | Efficacy (% E2) (ERα [2]): 60 % E2

Structure (SMILES): C#Cc1ccc(C(=O)c2sc3cc(O)ccc3c2-c2ccc(F)cc2)cc1 [Compound 23, (4-ethynylphenyl)(3-(4-fluorophenyl)-6-hydroxybenzo[b]thiophen-2-yl)methanone]
Antagonism of E2 induced ERE activation (ERα [4]): dose dependent reduction in E2 luciferase activity | Effect on FRET signal on ligand titration (ERα-LBD/SRC3 complex [6]): reduced FRET signal | Maximal FRET signal relative to E2-liganded ERα-LBD/SRC3 complex (ERα-LBD/SRC3 complex [7]): less than 50% | EC50 (ERα [2]): 5 nM | Efficacy (% E2) (ERα [2]): 65 % E2 | Tumor size versus control tumors (T47D:A18/PKCα tumors [3]): half the size of control tumors

Structure (SMILES): Oc1ccc(Oc2c(-c3ccc(F)cc3)sc3cc(O)ccc23)cc1 [Compound 19, 2-(4-fluorophenyl)-3-(4-hydroxyphenoxy)benzo[b]thiophen-6-ol]
Efficacy (% E2) (ERα [2]): 100 % E2

Structure (SMILES): O=C(c1ccc(C(F)(F)F)cc1)c1c(-c2ccc(F)cc2)sc2cc(O)ccc12 [Compound 14b, (2-(4-fluorophenyl)-6-hydroxybenzo[b]thiophen-3-yl)(4-(trifluoromethyl)phenyl)methanone]
Efficacy (% E2) (ERα [2]): 100 % E2

Structure (SMILES): Cc1ccc(C(=O)c2c(-c3ccc(O)cc3)sc3cc(O)ccc23)cc1 [Compound 14a]
Efficacy (% E2) (ERα [2]): 100 % E2

Structure (SMILES): O=C(c1ccc(C(F)(F)F)cc1)c1c(-c2ccc(Cl)cc2)sc2cc(O)ccc12 [Compound 14c, (2-(4-chlorophenyl)-6-hydroxybenzo[b]thiophen-3-yl)(4-(trifluoromethyl)phenyl)methanone]
Efficacy (% E2) (ERα [2]): 100 % E2

Now from value to compound, other results behind:

Efficacy (% E2) (ERα [2]): 100 % E2
Structure (SMILES): Oc1ccc2c(-c3ccc(F)cc3)c(Oc3ccc(F)cc3)sc2c1 [Compound 30c, 2-(4-fluorophenoxy)-3-(4-fluorophenyl)benzo[b]thiophen-6-ol]

Efficacy (% E2) (ERα [2]): 100 % E2
Structure (SMILES): Oc1ccc2c(-c3ccc(F)cc3)c(Oc3ccc(F)c(F)c3)sc2c1 [Compound 30d, 2-(3,4-difluorophenoxy)-3-(4-fluorophenyl)benzo[b]thiophen-6-ol]

Efficacy (% E2) (ERα [2]): 70 % E2
Structure (SMILES): Oc1ccc2c(-c3ccc(F)cc3)c(Oc3ccc(Cl)cc3)sc2c1 [Compound 30b, 2-(4-chlorophenoxy)-3-(4-fluorophenyl)benzo[b]thiophen-6-ol]
Antagonism of E2 induced ERE activation (ERα [4]): dose dependent reduction in E2 luciferase activity
